The values that follow are results of earlier work, collected in publication PMC5296674, “Evaluation of the Availability and Antioxidant Capacity of Maillard Compounds Present in Bread Crust: Studies in Caco-2 Cells” (Foods, 2017).

SMILES strings stand for the structures.

The series has as its system Caco-2 cells. The arrangement: method as in PMID 19338346.

With `CC1=C(O)C(=O)C(C)O1` (centres unmarked) [HDMF, 4-hydroxy-2,5-dimethyl-3(2H)-furanone], under “100 and 500 μM”, the Saturation of transport entry was “saturation of the transport was not observed”.
As to `O=Cc1ccc(CO)o1` [HMF, hydroxymethylfurfural], the HMF transport rate result (100 µM HMF solution, 4 h of incubation) is reported as “around 20%”.
